The values below come from patent publication US20250215012A1, “IKZF2 DEGRADERS AND USES THEREOF” (REGENTS OF THE UNIVERSITY OF MICHIGAN, priority 2022, published 2025).

pIC50: −log10 of the molar value. Bounds are passed on as bounds.

The term pIC50 denotes the IC50 on a negative log10 scale, so that one unit is a factor of ten. Higher therefore signals a low IC50. A word on the DC50: it is the midpoint of the concentration-degradation curve. By Dmax is commonly meant the largest share of the target that was removed.

Test [1] deals with GST-tagged wild-type human CRBN protein (Homo sapiens (Human), UniProt Q96SW2). In words: Cereblon Binding Assay (Cisbio Cereblon Binding Kit, TR-FRET). The settings on record: about 3 hours at room temperature. As to the method: The binding to cereblon (CRBN) is determined using the Cereblon Binding Kit (Cisbio, #64BDCRBNPEG) following the manufacturer's instruction. Briefly, serially diluted compounds are incubated with GST-tagged wild-type human CRBN protein, XL665-labelled Thalidomide and Europium Cryptate labelled GST antibody.
The binding to cereblon (CRBN) was determined using the Cereblon Binding Kit (Cisbio, #64BDCRBNPEG) following the manufacturer's instruction. Briefly, serially diluted compounds were incubated with GST-tagged wild-type human CRBN protein, XL665-labelled Thalidomide and Europium Cryptate labelled GST antibody at room temperature for about 3 hours.
(In general: TR-FRET usually uses a lanthanide donor and a delayed reading to cut background.)

Test [2] has as its target T1, IKZF2 (Homo sapiens (Human), UniProt Q96SW2+Q9UKS7). In words: IKZF2 HiBiT Assay (Jurkat-IKZF2-HiBiT cell line). The format is cell-based. The note with it: for DC50: read-out: HiBit assay degradation analysis DC50; for Dmax: read-out: HiBit assay degradation analysis Dmax. The gist of the method: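 Jurkat cells carrying HiBiT-tagged IKZF2 were exposed to serially diluted compound for 24 h at 37 °C. Remaining IKZF2 was measured by Nano-Glo HiBiT lytic luminescence after 10-20 min at room temperature. Signal was normalized to DMSO, and IC50 came from a four-parameter variable-slope fit.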

The target of test [3] is His tagged CRBN+DDB−DLS7+CXU4 (Homo sapiens (Human), UniProt Q96SW2). In words: IC50 Measurements for Binding to CRBN/DDBI (HTRF). The settings on record: Cy5-labeled Thalidomide probe, one hour incubation.
For test [4], the target named is T1, IKZF2. The experiment in a line: IKZF2 HiBit Assay (HEK293T Flp-in-HiBiT cells). Format: cell-based. The note with it: HEK293T Flp-in-HiBiT cells, 6 hrs; for DC50: read-out: IKZF2 HiBit degradation DC50; for Dmax: HEK-293T, read-out: IKZF2 HiBit degradation Dmax. The gist of the method:
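HEK293T Flp-in cells carrying CRISPR-inserted N-terminal HiBiT tag at the endogenous IKZF2 locus were treated with an 11-point, 3-fold dilution from 1 mM (stock) for 6 hrs; final DMSO 0.1%. HiBiT luminescence was detected after lysis with LgBiT/substrate reagent. DMSO-normalized curves gave 50% degradation concentration and Dmax.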
A general note: The HiBiT peptide binds its large partner to form an active luciferase.

The next test has as its target IKZF1 (Homo sapiens (Human), UniProt Q13422+Q96SW2). The experiment in a line: IKZF1 HiBit Assay (HEK293T Flp-in-HiBiT-IKZF1 stable cell line). Format: cell-based. The note with it: HEK293T Flp-in-HiBiT-IKZF1 cells, 6 hrs; for DC50: read-out: IKZF1 HiBit degradation DC50; for Dmax: HEK-293T, read-out: IKZF1 HiBit degradation Dmax. A digest of the protocol:
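HEK293T Flp-in cells with CRISPR-inserted N-terminal HiBiT tag treated 6 h with 11-point threefold dilutions (0.1% DMSO). Nano-Glo HiBiT lytic luminescence normalised to DMSO gave the 50%-degradation concentration; Dmax taken as the luminescence range from highest to lowest concentration.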

Setting [5] is: Jurkat-IKZF2-HiBiT cells, 24 hours.

Chain of IKZF1 (Q13422 whole entry): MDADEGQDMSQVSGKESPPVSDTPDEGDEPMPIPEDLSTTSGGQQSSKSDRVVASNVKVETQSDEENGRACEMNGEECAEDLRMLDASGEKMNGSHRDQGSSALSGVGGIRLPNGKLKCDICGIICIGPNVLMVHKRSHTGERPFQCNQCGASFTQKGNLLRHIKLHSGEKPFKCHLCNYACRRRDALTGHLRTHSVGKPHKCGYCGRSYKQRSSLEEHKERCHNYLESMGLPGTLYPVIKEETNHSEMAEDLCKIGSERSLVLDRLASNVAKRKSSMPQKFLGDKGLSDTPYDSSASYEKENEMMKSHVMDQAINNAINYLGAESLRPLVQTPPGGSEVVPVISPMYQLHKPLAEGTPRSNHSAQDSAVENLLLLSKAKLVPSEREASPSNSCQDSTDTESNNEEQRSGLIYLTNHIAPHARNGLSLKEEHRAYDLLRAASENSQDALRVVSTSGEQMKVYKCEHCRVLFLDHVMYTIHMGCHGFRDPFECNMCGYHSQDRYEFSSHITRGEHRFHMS
Chain of IKZF1 (Q96SW2 whole entry): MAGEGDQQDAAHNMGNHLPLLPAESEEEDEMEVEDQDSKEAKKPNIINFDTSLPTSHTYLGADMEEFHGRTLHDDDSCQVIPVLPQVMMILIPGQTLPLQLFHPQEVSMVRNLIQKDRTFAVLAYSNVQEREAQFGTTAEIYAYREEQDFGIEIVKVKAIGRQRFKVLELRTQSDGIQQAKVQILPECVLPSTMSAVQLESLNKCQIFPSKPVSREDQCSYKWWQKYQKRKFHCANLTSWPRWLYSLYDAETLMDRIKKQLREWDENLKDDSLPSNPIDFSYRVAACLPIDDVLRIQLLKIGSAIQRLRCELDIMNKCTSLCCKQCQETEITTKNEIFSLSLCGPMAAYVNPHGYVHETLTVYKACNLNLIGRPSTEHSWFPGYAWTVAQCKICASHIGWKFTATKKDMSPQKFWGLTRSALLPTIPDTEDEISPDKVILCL
Chain of IKZF1 (Q16531 whole entry partner): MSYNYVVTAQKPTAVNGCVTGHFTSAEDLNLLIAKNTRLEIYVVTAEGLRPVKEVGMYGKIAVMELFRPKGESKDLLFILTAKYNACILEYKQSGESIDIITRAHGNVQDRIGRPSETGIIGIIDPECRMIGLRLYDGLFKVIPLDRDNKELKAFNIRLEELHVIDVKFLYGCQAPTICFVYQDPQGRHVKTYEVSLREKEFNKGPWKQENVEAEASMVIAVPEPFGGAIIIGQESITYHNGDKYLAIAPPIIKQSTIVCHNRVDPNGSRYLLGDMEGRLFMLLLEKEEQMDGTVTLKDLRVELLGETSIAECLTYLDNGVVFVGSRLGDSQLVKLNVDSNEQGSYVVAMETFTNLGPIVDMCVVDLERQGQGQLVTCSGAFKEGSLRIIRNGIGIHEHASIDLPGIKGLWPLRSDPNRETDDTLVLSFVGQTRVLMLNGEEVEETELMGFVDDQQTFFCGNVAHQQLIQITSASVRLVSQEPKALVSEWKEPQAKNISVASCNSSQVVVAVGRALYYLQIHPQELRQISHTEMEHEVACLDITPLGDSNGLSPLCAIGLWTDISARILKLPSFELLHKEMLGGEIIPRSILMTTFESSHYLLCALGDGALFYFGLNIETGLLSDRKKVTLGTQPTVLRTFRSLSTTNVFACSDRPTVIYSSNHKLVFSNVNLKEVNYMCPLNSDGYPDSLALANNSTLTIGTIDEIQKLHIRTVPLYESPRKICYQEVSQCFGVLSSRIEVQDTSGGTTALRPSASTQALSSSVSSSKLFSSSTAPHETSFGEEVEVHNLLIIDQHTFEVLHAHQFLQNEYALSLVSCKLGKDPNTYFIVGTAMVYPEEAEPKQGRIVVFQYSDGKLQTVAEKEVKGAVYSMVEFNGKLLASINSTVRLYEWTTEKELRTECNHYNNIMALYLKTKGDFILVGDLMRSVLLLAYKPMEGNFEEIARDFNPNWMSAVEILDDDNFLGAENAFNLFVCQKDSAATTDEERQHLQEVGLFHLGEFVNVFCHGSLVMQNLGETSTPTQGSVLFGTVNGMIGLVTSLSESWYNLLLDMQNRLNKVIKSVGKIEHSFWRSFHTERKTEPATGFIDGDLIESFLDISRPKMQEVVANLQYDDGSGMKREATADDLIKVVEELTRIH
Chain of His tagged CRBN+DDB−DLS7+CXU4 (Q96SW2 whole entry): as the sequence (Q96SW2 whole entry) above
Chain of His tagged CRBN+DDB−DLS7+CXU4 (Q16531 whole entry partner): as the sequence (Q16531 whole entry partner) above
Chain of GST-tagged wild-type human CRBN protein (Q96SW2 whole entry): as the sequence (Q96SW2 whole entry) above
T1 sequence (Q9UKS7 whole entry): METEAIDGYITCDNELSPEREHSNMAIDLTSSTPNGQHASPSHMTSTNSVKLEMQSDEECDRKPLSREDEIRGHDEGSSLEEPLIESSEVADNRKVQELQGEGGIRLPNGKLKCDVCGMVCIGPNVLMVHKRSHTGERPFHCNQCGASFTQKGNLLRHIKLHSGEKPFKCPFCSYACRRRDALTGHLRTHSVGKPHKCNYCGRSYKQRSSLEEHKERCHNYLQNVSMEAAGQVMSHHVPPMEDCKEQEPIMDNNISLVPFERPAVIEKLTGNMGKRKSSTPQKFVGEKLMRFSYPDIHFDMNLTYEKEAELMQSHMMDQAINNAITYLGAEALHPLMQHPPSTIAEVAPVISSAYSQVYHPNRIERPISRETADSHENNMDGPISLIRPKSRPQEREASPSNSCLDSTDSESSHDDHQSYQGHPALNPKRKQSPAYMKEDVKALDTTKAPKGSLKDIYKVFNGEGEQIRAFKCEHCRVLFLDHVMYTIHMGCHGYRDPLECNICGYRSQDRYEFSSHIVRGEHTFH
T1 sequence (Q96SW2 whole entry): as the sequence (Q96SW2 whole entry) above
T1 sequence (Q16531 whole entry partner): as the sequence (Q16531 whole entry partner) above

Compound `O=C1CCC(N2Cc3c(ccc4c3OCC43CCNCC3)C2=O)C(=O)N1` (stereo not shown) [Compound A1, 3-(6-oxo-6,8-dihydro-2H,7H-spiro[furo[2,3-e]isoindole-3,4′-piperidin]-7-yl)piperidine-2,6-dione] gave a pIC50 in test [1] of under 6.00. Besides, at IKZF2 [2] (setting [5]), the DC50 was over 500 nM. Further, the Dmax on IKZF2 [2] is under 40%.

With `O=C1CCC(N2Cc3c(ccc4c3OCC43CCN(Cc4ccc(C(F)F)cc4)CC3)C2=O)C(=O)N1` (stereo not shown) [Compound A3, 3-(1′-(4-(difluoromethyl)benzyl)-6-oxo-6,8-dihydro-2H,7H-spiro[furo[2,3-e]isoindole-3,4′-piperidin]-7-yl)piperidine-2,6-dione], the pIC50 in test [1] was 7.00 to 8.00. Besides, on IKZF2 [2] (setting [5]), the 50% degradation concentration (DC50) was over 500 nM and the Dmax lay within 40 to 60%.

In the case of `O=C1CCC(N2Cc3c(ccc4c3OCC43CCN(Cc4ccc(F)c(F)c4)CC3)C2=O)C(=O)N1` (stereo not shown) [Compound A5, 3-(1′-(3,4-difluorobenzyl)-6-oxo-6,8-dihydro-2H,7H-spiro[furo[2,3-e]isoindole-3,4′-piperidin]-7-yl)piperidine-2,6-dione], the pIC50 in test [1] is 6.00 to 7.00. In addition, at IKZF2 [2] (setting [5]), the DC50 was over 500 nM and the Dmax is under 40%.

Regarding `O=C1CCC(N2Cc3c(ccc4c3OCC43CCN(Cc4ccccc4)CC3)C2=O)C(=O)N1` (stereo not shown) [Compound A8, 3-(1′-benzyl-6-oxo-6,8-dihydro-2H,7H-spiro[furo[2,3-e]isoindole-3,4′-piperidin]-7-yl)piperidine-2,6-dione], in test [1], the pIC50 was 6.00 to 7.00. In addition, at IKZF2 [2] (setting [5]), the DC50 was 200 to 500 nM and the Dmax lay within 40 to 60%.

Consider `CCc1ccc(CN2CCC3(CCOc4c3ccc3c4CN(C4CCC(=O)NC4=O)C3=O)CC2)cc1` (stereo not shown) [Compound A11, 3-(1-(4-ethylbenzyl)-7′-oxo-2′,3′,7′,9′-tetrahydro-8′H-spiro[piperidine-4,4′-pyrano[2,3-e]isoindol]-8′-yl)piperidine-2,6-dione], for which, in test [1], the pIC50 is 7.00 to 8.00. In addition, on IKZF2 [2] (setting [5]), the DC50 is over 500 nM and the Dmax is 40 to 60%.

With `Cc1ccc(CN2CCC3(CCOc4c3ccc3c4CN(C4CCC(=O)NC4=O)C3=O)CC2)cc1` (stereo not shown) [Compound A12, 3-(1-(4-methylbenzyl)-7′-oxo-2′,3′,7′,9′-tetrahydro-8′H-spiro[piperidine-4,4′-pyrano[2,3-e]isoindol]-8′-yl)piperidine-2,6-dione], in test [1], the pIC50 was 7.00 to 8.00. Further, on IKZF2 [2] (setting [5]), the DC50 was over 500 nM and the Dmax was under 40%.

For `Cc1ccc(CN2CCC3(CC2)COc2c3ccc3c2CN(C2CCC(=O)NC2=O)C3=O)cc1` (stereo not shown) [Compound A15, 3-(1′-(4-methylbenzyl)-6-oxo-6,8-dihydro-2H,7H-spiro[furo[2,3-e]isoindole-3,4′-piperidin]-7-yl)piperidine-2,6-dione], the pIC50 in test [1] was 6.00 to 7.00. Also, on IKZF2 [2] (setting [5]), the DC50 fell in the range of 200 to 500 nM and the Dmax fell in the range of 40 to 60%.

Take `O=C1CCC(N2Cc3c(ccc4c3OCC43CCN(Cc4cccc5ccccc45)CC3)C2=O)C(=O)N1` (stereo not shown) [Compound A27, 3-(1′-(naphthalen-1-ylmethyl)-6-oxo-6,8-dihydro-2H,7H-spiro[furo[2,3-e]isoindole-3,4′-piperidin]-7-yl)piperidine-2,6-dione]: in test [1], the pIC50 is 6.00 to 7.00. In addition, at IKZF2 [2] (setting [5]), the DC50 was under 50 nM and the Dmax is over 80%.

The compound `O=C1CCC(N2Cc3c(ccc4c3OCC43CCN(Cc4cccc(F)c4)CC3)C2=O)C(=O)N1` (stereo not shown) [Compound A29, 3-(1′-(3-fluorobenzyl)-6-oxo-6,8-dihydro-2H,7H-spiro[furo[2,3-e]isoindole-3,4′-piperidin]-7-yl)piperidine-2,6-dione] showed a pIC50 in test [1] of under 6.00. At IKZF2 [2] (setting [5]), the DC50 was over 500 nM and the maximal degradation (Dmax) lay within 40 to 60%.

In turn, `Cc1cc(C)cc(CN2CCC3(CC2)COc2c3ccc3c2CN(C2CCC(=O)NC2=O)C3=O)c1` (stereo not shown) [Compound A31, 3-(1′-(3,5-dimethylbenzyl)-6-oxo-6,8-dihydro-2H,7H-spiro[furo[2,3-e]isoindole-3,4′-piperidin]-7-yl)piperidine-2,6-dione] had a pIC50 in test [1] of 6.00 to 7.00. In addition, at IKZF2 [2] (setting [5]), the DC50 fell in the range of 200 to 500 nM and the Dmax lay within 60 to 80%.

In test [1], `O=C1CCC(N2Cc3c(ccc4c3OCC43CCN(Cc4cccc5cn[nH]c45)CC3)C2=O)C(=O)N1` (stereo not shown) [Compound A52, 3-(1′-((1H-indazol-7-yl)methyl)-6-oxo-6,8-dihydro-2H,7H-spiro[furo[2,3-e]isoindole-3,4′-piperidin]-7-yl)piperidine-2,6-dione] gave a pIC50 of 7.00 to 8.00. Also, on IKZF2 [2] (setting [5]), the DC50 was under 50 nM and the Dmax fell in the range of 60 to 80%.

In the case of `O=C1CCC(N2Cc3c(ccc4c3OCC43CCN(Cc4ccc5cn[nH]c5c4)CC3)C2=O)C(=O)N1` (stereo not shown) [Compound A56, 3-(1′-((1H-indazol-6-yl)methyl)-6-oxo-6,8-dihydro-2H,7H-spiro[furo[2,3-e]isoindole-3,4′-piperidin]-7-yl)piperidine-2,6-dione], in test [1], the pIC50 is 6.00 to 7.00. Also, on IKZF2 [2] (setting [5]), the DC50 is under 50 nM and the Dmax lay within 60 to 80%.

`Cn1cc2ccc(CN3CCC4(CC3)COc3c4ccc4c3CN(C3CCC(=O)NC3=O)C4=O)cc2n1` (stereo not shown) [Compound A69, 3-(1′-((2-methyl-2H-indazol-6-yl)methyl)-6-oxo-6,8-dihydro-2H,7H-spiro[furo[2,3-e]isoindole-3,4′-piperidin]-7-yl)piperidine-2,6-dione]: in test [1], the pIC50 was 6.00 to 7.00. For the same compound, on IKZF2 [2] (setting [5]), the DC50 is under 50 nM and the Dmax lay within 60 to 80%.

In test [3], `[2H]C([2H])([2H])n1cc(-c2cccc(CN3CCC4(COc5c4ccc4c5CN([C@H]5CCC(=O)NC5=O)C4=O)C(F)(F)C3)c2)cn1` (stereo partly drawn) [Compound B49, (3S)-3-(3′,3′-difluoro-1′-(3-(1-(methyl-d3)-1H-pyrazol-4-yl)benzyl)-6-oxo-6,8-dihydro-2H,7H-spiro[furo[2,3-e]isoindole-3,4′-piperidin]-7-yl) piperidine-2,6-dione] had a negative logarithm of the IC50 (pIC50) of 6.30 to 7.00. Further, the DC50 was under 1 nM at IKZF2 [4] and over 1000 nM on IKZF1. Moreover, the Dmax at IKZF2 [4] was over 80%; at IKZF1 it was under 20%.

Compound `[2H]C([2H])(c1cccc(-c2cnn(C)c2)c1)N1CCC2(COc3c2ccc2c3CN([C@H]3CCC(=O)NC3=O)C2=O)C(F)(F)C1` (stereo partly shown) [Compound B50] gave a pIC50 in test [3] of 6.30 to 7.00. Also, the DC50 at IKZF2 [4] was 1 to 10 nM; at IKZF1 it was over 1000 nM. Further, the Dmax on IKZF2 [4] is 60 to 80%; at IKZF1 it was under 20%.

In test [3], `Cn1cc(-c2cccc(CN3CC[C@@]4(COc5c4ccc4c5CN([C@H]5CCC(=O)NC5=O)C4=O)C(F)(F)C3)c2)cn1` [Compound B52, (S)-3-((R)-3′,3′-difluoro-1′-(3-(1-methyl-1H-pyrazol-4-yl)benzyl)-6-oxo-6,8-dihydro-2H,7H-spiro[furo[2,3-e]isoindole-3,4′-piperidin]-7-yl)piperidine-2,6-dione] showed a pIC50 of 6.30 to 7.00. Moreover, at IKZF2 [4], the DC50 lay within 1 to 10 nM and the Dmax lay within 40 to 60%. At IKZF1, the half-maximal degradation concentration (DC50) was over 1000 nM and the Dmax was under 20%.

As to “(3S)-3-(1′-((1H-indazol-6-yl)methyl)-3′,3′-difluoro-3-oxo-1,3,7,8-tetrahydro-2H-spiro[cyclopenta[e]isoindole-6,4′-piperidin]-2-yl)piperidine-2,6-dione [Compound B33]”, the pIC50 in test [3] was 6.30 to 7.00. Besides, on IKZF2 [4], the “IKZF2 HiBit degradation Dmax” value is “B (B: 60-80%)” and the DC50 was in the range of 1 to 10 nM. Besides, on IKZF1, the “IKZF1 HiBit degradation Dmax” value is reported as “C (C: <20%)” and the DC50 was over 1000 nM.

In test [3], “(3S)-3-(3′,3′-difluoro-1′-((1-methyl-1H-indazol-6-yl)methyl)-3-oxo-1,3,7,8-tetrahydro-2H-spiro[cyclopenta[e]isoindole-6,4′-piperidin]-2-yl)piperidine-2,6-dione [Compound B34]” had a pIC50 of 6.30 to 7.00. Further, at IKZF2 [4], the “IKZF2 HiBit degradation Dmax” value is reported as “B (B: 60-80%)” and the DC50 is 1 to 10 nM. Also, on IKZF1, the “IKZF1 HiBit degradation Dmax” value was “C (C: <20%)” and the DC50 is over 1000 nM.
